The record followed here is BindingDB's records for doi:10.1016/s0960-894x(98)00019-5 (Abbott Laboratories, 1999).

By IC50 is commonly meant the concentration needed to halve the response being measured.

This experiment can be described thus: Inhibitory concentration to antagonise cation efflux in nAChR subtype human alpha3betaX, expressed in IMR-32 cells.

The compound `CCCc1cncc(OC[C@@H]2CCCN2C)c1` [3-((S)-1-Methyl-pyrrolidin-2-ylmethoxy)-5-propyl-pyridine] returned an IC50 of 3.2 µM. In the case of `CCCCc1cncc(OC[C@@H]2CCCN2C)c1` [3-Butyl-5-((S)-1-methyl-pyrrolidin-2-ylmethoxy)-pyridine], half-maximal inhibition (IC50) was put at 5 µM.
